Assay: xn = mol fraction of the nth substance listed
Conditions: 101 kPa, Liquid; for mass density: Vibrating tube method

NCCO.O=CO [2-hydroxyethylammonium formate] + O
Conditions	mass density, 308.15 K [kg/m3]	mass density, 310.65 K [kg/m3]	mass density, 313.15 K [kg/m3]	mass density, 315.65 K [kg/m3]	speed of sound, 305.65 K [m/s]	speed of sound, 308.15 K [m/s]	speed of sound, 310.65 K [m/s]	speed of sound, 313.15 K [m/s]
x2 = 0	1169.39	1167.62	1165.84	1164.06	1690.8	1684.8	1678.7	1672.7
x2 = 0.047	1169.74	1168.1	1166.46	1164.82	1723.5	1718.4	1713.4	1708.3
x2 = 0.108	1168.41	1166.77	1165.14	1163.51	1725.2	1720.2	1715.2	1710.2
x2 = 0.199	1165.49	1163.86	1162.22	1160.59	1726.8	1721.9	1717.1	1712.1
x2 = 0.311	1160.67	1159.05	1157.42	1155.79	1728.3	1723.6	1718.9	1714.1
x2 = 0.4	1155.85	1154.22	1152.6	1150.97	1728	1723.5	1718.9	1714.4
x2 = 0.492	1149.4	1147.79	1146.17	–	1727.3	1723	1718.7	1714.3
x2 = 0.601	1138.94	1137.34	1135.74	–	1723.5	1719.6	1715.6	1711.7
x2 = 0.699	1125.12	1123.56	1121.98	–	1717.4	1714.1	1710.7	1707.2
x2 = 0.8	1103.38	1101.88	1100.38	–	1697.5	1695.2	1692.8	1690.4
x2 = 0.9	1066.39	1065.06	1063.71	–	1649	1648.9	1648.6	1648.2
x2 = 0.95	1036.99	1035.83	1034.64	–	1598.9	1600.8	1602.4	1603.8

Reference: the NIST ThermoML archive (doi:10.1016/j.jct.2007.05.011)
